Test results taken from PMC4116459 (Molecular microbiology, 2014).

Columns and labels:
[1] = biological target: BcsE (Escherichia coli, UniProt P37657); test: equilibrium dialysis with purified MBP-BcsE; format: binding
[2] = biological target: T1, YcgR (Escherichia coli, UniProt P76010); test: […]-c-di-GMP DRaCALA with cell lysates, competed by unlabeled c-di-GMP; format: cell-based
T1 sequence (P76010 1-244): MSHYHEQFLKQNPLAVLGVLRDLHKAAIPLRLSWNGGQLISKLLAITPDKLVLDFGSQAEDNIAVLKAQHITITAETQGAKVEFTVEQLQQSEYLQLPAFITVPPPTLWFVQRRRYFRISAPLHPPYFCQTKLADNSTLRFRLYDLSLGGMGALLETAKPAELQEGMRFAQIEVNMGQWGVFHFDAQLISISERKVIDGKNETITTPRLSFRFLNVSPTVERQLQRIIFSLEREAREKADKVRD

Sequence of BcsE (P37657 whole entry): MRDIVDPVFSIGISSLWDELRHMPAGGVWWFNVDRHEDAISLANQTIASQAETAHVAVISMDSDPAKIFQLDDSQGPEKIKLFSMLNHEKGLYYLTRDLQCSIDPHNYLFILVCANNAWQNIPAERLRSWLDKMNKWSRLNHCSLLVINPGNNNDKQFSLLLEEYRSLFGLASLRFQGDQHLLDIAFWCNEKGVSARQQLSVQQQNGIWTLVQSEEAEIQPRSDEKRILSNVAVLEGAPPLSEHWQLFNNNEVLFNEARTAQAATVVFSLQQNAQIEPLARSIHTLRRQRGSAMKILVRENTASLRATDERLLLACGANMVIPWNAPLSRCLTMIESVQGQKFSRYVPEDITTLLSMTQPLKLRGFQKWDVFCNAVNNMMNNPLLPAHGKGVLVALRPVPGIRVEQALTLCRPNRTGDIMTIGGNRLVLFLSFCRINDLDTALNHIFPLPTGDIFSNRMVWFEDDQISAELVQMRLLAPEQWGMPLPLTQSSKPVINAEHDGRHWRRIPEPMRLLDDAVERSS

Compound: Nc1nc2c(ncn2[C@@H]2O[C@@H]3COP(=O)(O)O[C@H]4[C@@H](O)[C@H](n5cnc6c(=O)[nH]c(N)nc65)O[C@@H]4COP(=O)(O)O[C@H]3[C@H]2O)c(=O)[nH]1 [c-di-GMP]
- Kd [1]: 2420 nM
- 33P-c-di-GMP DRaCALA with cell lysates, competed by unlabeled c-di-GMP [2]: Only the YcgR and Clp lysates produced positive signals (Fig. 1B).
